Columns and labels:
[1] = tested on: green peach aphid (Myzus persicae); test: Myzus persicae test (cabbage leaf dip); assay type: in vivo; conditions: single active compound, 0.16 ppm
Description: (§1) Solvent: 7 parts by weight of dimethylformamide Emulgator: 2 parts by weight of alkylaryl polyglycol ether
(§2) To produce a suitable preparation of active compound, 1 part by weight of active compound is mixed with the stated amounts of solvent and emulsifier, and the concentrate is diluted with water to the desired concentration.
Cabbage leaves (Brassica oleracea) which are heavily infested by the green peach aphid (Myzus persicae) are treated by being dipped into the preparation of active compound of the desired concentration.
After the desired period of time, the kill in % is determined. 100% means that all aphids have been killed; 0% means that none of the aphids have been killed. The kill rates determined are entered into the Colby formula (see sheet 1).

[2] = tested on: larvae of the mustard beetle (Phaedon cochleariae); test: Phaedon cochleariae larvae test (cabbage leaf dip); assay type: in vivo; conditions: single active compound
Description: Phaedon cochleariae Larvae Test
as §1, §2
Cabbage leaves (Brassica oleracea) are treated by being dipped into the preparation of active compound of the desired concentration and populated with larvae of the mustard beetle (Phaedon cochleariae) while the leaves are still moist.
After the desired period of time, the kill in % is determined. 100% means that all beetle larvae have been killed; 0% means that none of the beetle larvae have been killed. The kill rates determined are entered into the Colby formula (see sheet 1).

SMILES | Kill in % after 6d [1] | Kill in % after 4d ([2]; 4 ppm) | Kill in % after 4d ([2]; 20 ppm)
CN(Cc1ccc(Cl)nc1)C1=CC(=O)OC1 [compound (Ia)] | 10% | 5% | 16%
O=[N+]([O-])/N=C1\NCCN1Cc1ccc(Cl)nc1 [imidacloprid, reference compound] | 20% |  | 53%
